Measurements as given in ChEMBL document CHEMBL4382262, “Structurally Simple, Readily Available Peptidomimetic 1-Benzyl-5-methyl-4-( n-octylamino)pyrimidin-2(1 H)-one Exhibited Efficient Cardioprotection in a Myocardial Ischemia (MI) Mouse Model” (J Med Chem, 2018).
Active and inactive are the calls of the source. No cut-off for these calls is given here. Where a SMILES comes first, the peptide text is derived from it.

What was measured:
[1] = biological target: T1, Toll-like receptor 4 (Rattus norvegicus) (UniProt Q9QX05); assay: Inhibition of TLR4 in Sprague-Dawley rat cardiomyocytes assessed as reduction in hypoxia-induced creatine kinase levels preincubated for 1 hr followed by hypoxia for 3 hrs by NADP reduction based colorimetric analysis; format: cell-based
T1 sequence (whole entry): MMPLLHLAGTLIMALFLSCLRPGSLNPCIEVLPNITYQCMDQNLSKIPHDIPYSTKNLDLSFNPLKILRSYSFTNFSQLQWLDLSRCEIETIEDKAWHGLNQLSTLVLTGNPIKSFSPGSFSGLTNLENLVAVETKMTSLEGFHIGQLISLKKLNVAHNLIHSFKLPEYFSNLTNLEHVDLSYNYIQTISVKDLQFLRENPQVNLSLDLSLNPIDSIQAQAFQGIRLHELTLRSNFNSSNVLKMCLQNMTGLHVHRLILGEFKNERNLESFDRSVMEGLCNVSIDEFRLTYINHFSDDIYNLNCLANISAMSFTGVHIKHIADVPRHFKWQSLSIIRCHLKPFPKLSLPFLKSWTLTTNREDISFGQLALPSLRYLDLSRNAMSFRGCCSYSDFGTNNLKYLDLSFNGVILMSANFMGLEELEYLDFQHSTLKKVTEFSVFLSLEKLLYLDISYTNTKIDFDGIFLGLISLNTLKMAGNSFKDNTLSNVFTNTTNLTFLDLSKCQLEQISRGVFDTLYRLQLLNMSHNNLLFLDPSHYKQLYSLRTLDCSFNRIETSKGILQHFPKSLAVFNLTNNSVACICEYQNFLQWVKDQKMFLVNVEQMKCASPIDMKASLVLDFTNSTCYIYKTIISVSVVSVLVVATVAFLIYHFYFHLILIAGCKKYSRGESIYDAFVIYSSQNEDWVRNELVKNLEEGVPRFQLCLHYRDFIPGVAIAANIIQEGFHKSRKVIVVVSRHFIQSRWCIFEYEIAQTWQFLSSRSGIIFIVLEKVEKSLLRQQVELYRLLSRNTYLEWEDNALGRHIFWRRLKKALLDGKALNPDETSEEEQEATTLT

[2] = biological target: T1, Toll-like receptor 4 (Rattus norvegicus); assay: Inhibition of TLR4 in Sprague-Dawley rat cardiomyocytes assessed as reduction in hypoxia-induced LDH release preincubated for 1 hr followed by hypoxia for 3 hrs by NADH detection based colorimetric analysis; format: cell-based
[3] = biological target: T1, Toll-like receptor 4 (Rattus norvegicus); assay: Inhibition of TLR4 in Sprague-Dawley rat cardiomyocytes assessed as reduction in hypoxia-induced LDH release at 20 uM preincubated for 1 hr followed by hypoxia for 3 hrs by NADH detection based colorimetric analysis; format: cell-based
[4] = biological target: T1, Toll-like receptor 4 (Rattus norvegicus); assay: Inhibition of TLR4 in Sprague-Dawley rat cardiomyocytes assessed as reduction in hypoxia-induced creatine kinase levels at 10 uM preincubated for 1 hr followed by hypoxia for 3 hrs by NADP reduction based colorimetric analysis; format: cell-based
[5] = test system: Macrophage; assay: Antiinflammatory activity in human macrophages assessed reduction in TLR4 expression at 10 uM after 4 hrs by FACS analysis; format: functional, cell-based
[6] = biological target: T1, Toll-like receptor 4 (Rattus norvegicus); assay: Inhibition of TLR4 in Sprague-Dawley rat cardiomyocytes assessed as reduction in hypoxia-induced LDH release at 10 uM preincubated for 1 hr followed by hypoxia for 3 hrs by NADH detection based colorimetric analysis; format: cell-based
[7] = test system: Macrophage; assay: Antiinflammatory activity in human macrophages assessed reduction in LPS-induced TLR4 expression at 10 uM pretreated for 30 mins followed by LPS stimulation for 4 hrs by FACS analysis; format: functional, cell-based
[8] = biological target: T1, Toll-like receptor 4 (Rattus norvegicus); assay: Inhibition of TLR4 in Sprague-Dawley rat cardiomyocytes assessed as reduction in hypoxia-induced creatine kinase levels at 20 uM preincubated for 1 hr followed by hypoxia for 3 hrs by NADP reduction based colorimetric analysis; format: cell-based
[9] = biological target: T1, Toll-like receptor 4 (Rattus norvegicus); assay: Inhibition of TLR4 in Sprague Dawley rat cardiomyocytes assessed as reduction in LPS induced LDH levels by measuring NADH levels at 10 to 20 uM preincubated for 1 hr followed by induction of hypoxia measured after 5 hrs by colorimetric analysis; format: cell-based
[10] = biological target: T1, Toll-like receptor 4 (Rattus norvegicus); assay: Inhibition of TLR4 in Sprague-Dawley rat cardiomyocytes assessed as reduction in LPS-induced LDH release at 10 to 20 uM preincubated for 1 hr followed by LPS stimulation for 5 hrs by NADH detection based colorimetric analysis; format: cell-based
[11] = biological target: T1, Toll-like receptor 4 (Rattus norvegicus); assay: Inhibition of TLR4 in Sprague-Dawley rat cardiomyocytes assessed as reduction in hypoxia-induced LDH release at 1 uM preincubated for 1 hr followed by hypoxia for 3 hrs by NADH detection based colorimetric analysis; format: cell-based
[12] = biological target: T1, Toll-like receptor 4 (Rattus norvegicus); assay: Inhibition of TLR4 in Sprague-Dawley rat cardiomyocytes assessed as reduction in LPS-induced creatine kinase levels at 10 to 20 uM preincubated for 1 hr followed by LPS stimulation for 5 hrs by NADH detection based colorimetric analysis; format: cell-based
[13] = biological target: T1, Toll-like receptor 4 (Rattus norvegicus); assay: Inhibition of TLR4 in Sprague-Dawley rat cardiomyocytes assessed as reduction in hypoxia-induced creatine kinase levels at 1 uM preincubated for 1 hr followed by hypoxia for 3 hrs by NADP reduction based colorimetric analysis; format: cell-based
[14] = biological target: T1, Toll-like receptor 4 (Rattus norvegicus); assay: Inhibition of TLR4 in Sprague-Dawley rat cardiomyocytes assessed as reduction in hypoxia-induced LDH release at 10 to 20 uM preincubated for 1 hr followed by hypoxia for 3 hrs by NADH detection based colorimetric analysis; format: cell-based
[15] = biological target: T1, Toll-like receptor 4 (Rattus norvegicus); assay: Inhibition of TLR4 in Sprague-Dawley rat cardiomyocytes assessed as reduction in hypoxia-induced creatine kinase levels at 10 to 20 uM preincubated for 1 hr followed by hypoxia for 3 hrs by NADP reduction based colorimetric analysis; format: cell-based
[16] = biological target: T1, Toll-like receptor 4 (Rattus norvegicus); assay: Inhibition of TLR4 in Sprague-Dawley rat cardiomyocytes assessed as reduction in hypoxia-induced IL-1beta mRNA expression at 20 uM preincubated for 1 hr followed by hypoxia for 3 hrs by RT-qPCR analysis; format: cell-based
[17] = Reduction in hypoxia-induced TLR4 mRNA expression in Sprague-Dawley rat cardiomyocytes at 20 uM preincubated for 1 hr followed by hypoxia for 3 hrs by RT-qPCR analysis relative to untreated control; format: functional, Cardiac muscle cell

Row | inhibition [1] | inhibition [2] | Molecule | further results
1 | inactive | inactive | CC[C@H](C)[C@H](NC(C)=O)C(=O)N[C@@H](Cc1ccccc1)C(=O)N[C@@H](C)C(N)=O (Ac-Ile-Phe-Ala-NH2) | –
2 | inactive | inactive | CCOc1nc(=O)n(Cc2ccccc2)cc1C | –
3 | inactive | inactive | CCOc1nc(=O)n(Cc2ccc3ccccc3c2)cc1C | –
4 | inactive | inactive | CCOc1nc(=O)n(Cc2ccc([N+](=O)[O-])cc2)cc1C | –
5 | inactive | inactive | CCCCCCCCNc1nc(=O)n(Cc2ccc(C(F)(F)F)cc2)cc1C | –
6 | inactive | inactive | Cc1cn(Cc2ccccc2)c(=O)nc1NCc1ccccc1 | –
7 | inactive | inactive | CSCC[C@H](NC(C)=O)C(=O)N1CCC[C@H]1C(=O)NC(CS)C(=O)NCC(N)=O (single isomer, unassigned) | –
8 | inactive | inactive | CCCCCCCCCCNc1nc(=O)n(Cc2ccccc2)cc1C | –
9 | inactive | inactive | CCC(C)Nc1nc(=O)n(Cc2ccccc2)cc1C (stereo not drawn) | –

Continued, molecule first:

Row | Molecule | inhibition [1] | inhibition [2] | further results
10 | CSCC[C@H](NC(=O)[C@H](CCC(=O)O)NC(=O)[C@H](C)NC(C)=O)C(=O)N1CCC[C@H]1C(N)=O (Ac-AEMP-NH2) | Dose-dependent effect | Dose-dependent effect | –
11 | H-IVFAEMPCG-OH | – | – | fold change (FC) [3]: 1.8; inhibition [4]: inactive; Activity [5]: Active; inhibition [6]: inactive; Activity [7]: Active; fold change (FC) [8]: 5.5
12 | CCCCCCCCNc1nc(=O)n(Cc2ccc([N+](=O)[O-])cc2)cc1C | inactive | inactive | –
13 | CC[C@H](C)[C@H](NC(C)=O)C(=O)N[C@H](C(=O)N[C@@H](Cc1ccccc1)C(=O)N[C@@H](C)C(N)=O)C(C)C (Ac-IVFA-NH2) | Dose-dependent effect | Dose-dependent effect | inhibition [9]: Active; Activity [5]: Active; inhibition [10]: Active; Activity [7]: Active; inhibition [11]: 70%; inhibition [12]: Active; inhibition [13]: 77%
14 | CC(=O)N[C@@H](Cc1ccccc1)C(=O)N[C@@H](C)C(=O)N[C@@H](CCC(=O)O)C(N)=O (Ac-Phe-Ala-Glu-NH2) | inactive | inactive | –
15 | Cc1cn(Cc2ccccc2)c(=O)nc1NCCCN(C)C | inactive | inactive | –
16 | Cc1cn(Cc2ccccc2)c(=O)nc1NC1CCCC1 | inactive | inactive | –
17 | CCOc1nc(=O)n(Cc2ccc(C(F)(F)F)cc2)cc1C | inactive | inactive | –
18 | CC(=O)N[C@H](C(=O)N[C@@H](Cc1ccccc1)C(=O)N[C@@H](C)C(=O)N[C@@H](CCC(=O)O)C(N)=O)C(C)C (Ac-VFAE-NH2) | Dose-dependent effect | Dose-dependent effect | inhibition [9]: Active; inhibition [14]: Active; Activity [5]: Active; inhibition [10]: Active; Activity [7]: Active; inhibition [15]: Active; inhibition [12]: Active
19 | CC(=O)N[C@H](C(=O)N[C@@H](Cc1ccccc1)C(=O)N[C@@H](C)C(N)=O)C(C)C (Ac-Val-Phe-Ala-NH2) | inactive | inactive | –
20 | CSCC[C@H](NC(=O)[C@H](CCC(=O)O)NC(C)=O)C(=O)N1CCC[C@H]1C(=O)NC(CS)C(N)=O (single isomer, unassigned) | inactive | inactive | –
21 | CSCC[C@H](NC(=O)[C@H](CCC(=O)O)NC(=O)[C@H](C)NC(=O)[C@H](Cc1ccccc1)NC(C)=O)C(N)=O (Ac-FAEM-NH2) | Dose-dependent effect | Dose-dependent effect | inhibition [14]: Active; inhibition [15]: Active
22 | Cc1cn(Cc2ccccc2)c(=O)nc1NCCC(C)C | – | – | fold change (FC) [16]: 1.4; inhibition [4]: Active; fold change (FC) [17]: 1.5; inhibition [6]: Active
23 | CCOc1ncc(C)c(OCC)n1 | inactive | inactive | –
